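Growth conditions: 96-well plates. Treatment: test compound, 48 hours, 5 concentrations. Analysis: linear interpolation between bracketing concentrations; unreached endpoints set to highest concentration. Abbreviation: GI50, concentration required for 50% inhibition of growth.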 Calls of active or inactive are those of the source. Rule as the data show it: active = GI50 up to about 1.1 µM and inactive = higher.
Columns and labels:
Assay in all cases: NCI tumour cell line growth inhibition, 48 h
786-0 = test system: 786-0
A549 = test system: A549
ACHN = test system: ACHN
BT-549 = test system: BT-549
CAKI-1 = test system: CAKI-1
CCRF-CEM = test system: CCRF-CEM
COLO 205 = test system: COLO 205
DU-145 = test system: DU-145
EKVX = test system: EKVX
HCC 2998 = test system: HCC 2998
HCT-116 = test system: HCT-116
HCT-15 = test system: HCT-15
HL-60 = test system: HL-60
HOP-62 = test system: HOP-62
HT-29 = test system: HT-29
Hs-578T = test system: Hs-578T
IGROV-1 = test system: IGROV-1
KM12 = test system: KM12
LOX IMVI = test system: LOX IMVI
M14 = test system: M14
MCF7 = test system: MCF7
MDA-MB-231 = test system: MDA-MB-231
MDA-MB-435 = test system: MDA-MB-435
MDA-N = test system: MDA-N
MOLT-4 = test system: MOLT-4
Malme-3M = test system: Malme-3M
NCI-H226 = test system: NCI-H226
NCI-H23 = test system: NCI-H23
NCI-H460 = test system: NCI-H460
NCI-H522 = test system: NCI-H522
NCI/ADR-RES = test system: NCI/ADR-RES
OVCAR-3 = test system: OVCAR-3
OVCAR-4 = test system: OVCAR-4
OVCAR-5 = test system: OVCAR-5
OVCAR-8 = test system: OVCAR-8
PC-3 = test system: PC-3
RPMI-8226 = test system: RPMI-8226
SF-268 = test system: SF-268
SF-295 = test system: SF-295
SF-539 = test system: SF-539
SK-MEL-28 = test system: SK-MEL-28
SK-MEL-2 = test system: SK-MEL-2
SK-MEL-5 = test system: SK-MEL-5
SK-OV-3 = test system: SK-OV-3
SN12C = test system: SN12C
SNB-19 = test system: SNB-19
SNB-75 = test system: SNB-75
SR = test system: SR
SW-620 = test system: SW-620
T47D = test system: T47D
TK-10 = test system: TK-10
U-251 = test system: U-251
UACC-257 = test system: UACC-257
UACC-62 = test system: UACC-62
UO-31 = test system: UO-31
A498 = test system: A498
HOP-92 = test system: HOP-92
K562 = test system: K562
RXF 393 = test system: RXF 393

Question: With `O=C1NCc2ccccc2S(=O)(=O)n2cccc21` as the compound, how does the GI50 (786-0) read?
Answer: > 100 µM (inactive)

Question: And the GI50 (A549)?
Answer: > 100 µM (inactive)

Question: And the GI50 (ACHN)?
Answer: > 100 µM (inactive)

Question: What about the GI50 (BT-549) of the same compound?
Answer: > 100 µM (inactive)

Question: And the GI50 (CAKI-1)?
Answer: > 100 µM (inactive)

Question: And the GI50 (CCRF-CEM)?
Answer: > 100 µM (inactive)

Question: And the GI50 (COLO 205)?
Answer: > 100 µM (inactive)

Question: What about the GI50 (DU-145) of the same compound?
Answer: > 100 µM (inactive)

Question: And the GI50 (EKVX)?
Answer: > 100 µM (inactive)

Question: What about the GI50 (HCC 2998) of the same compound?
Answer: > 100 µM (inactive)

Question: And the GI50 (HCT-116)?
Answer: 63.1 µM (inactive)

Question: What about the GI50 (HCT-15) of the same compound?
Answer: > 100 µM

Question: What about the GI50 (HL-60) of the same compound?
Answer: > 100 µM (inactive)

Question: What about the GI50 (HOP-62) of the same compound?
Answer: > 100 µM (inactive)

Question: And the GI50 (HT-29)?
Answer: > 100 µM (inactive)

Question: And the GI50 (Hs-578T)?
Answer: > 100 µM (inactive)

Question: And the GI50 (IGROV-1)?
Answer: > 100 µM (inactive)

Question: And the GI50 (KM12)?
Answer: > 100 µM (inactive)

Question: And the GI50 (LOX IMVI)?
Answer: > 100 µM (inactive)

Question: What about the GI50 (M14) of the same compound?
Answer: > 100 µM (inactive)

Question: And the GI50 (MCF7)?
Answer: > 100 µM (inactive)

Question: And the GI50 (MDA-MB-231)?
Answer: > 100 µM (inactive)

Question: What about the GI50 (MDA-MB-435) of the same compound?
Answer: > 100 µM (inactive)

Question: What about the GI50 (MDA-N) of the same compound?
Answer: > 100 µM (inactive)

Question: And the GI50 (MOLT-4)?
Answer: > 100 µM (inactive)

Question: What about the GI50 (Malme-3M) of the same compound?
Answer: > 100 µM (inactive)

Question: What about the GI50 (NCI-H226) of the same compound?
Answer: > 100 µM (inactive)

Question: What about the GI50 (NCI-H23) of the same compound?
Answer: > 100 µM (inactive)

Question: And the GI50 (NCI-H460)?
Answer: > 100 µM (inactive)

Question: What about the GI50 (NCI-H522) of the same compound?
Answer: 85.7 µM (inactive)

Question: And the GI50 (NCI/ADR-RES)?
Answer: > 100 µM (inactive)

Question: And the GI50 (OVCAR-3)?
Answer: > 100 µM (inactive)

Question: What about the GI50 (OVCAR-4) of the same compound?
Answer: > 100 µM (inactive)

Question: What about the GI50 (OVCAR-5) of the same compound?
Answer: > 100 µM (inactive)

Question: And the GI50 (OVCAR-8)?
Answer: > 100 µM (inactive)

Question: And the GI50 (PC-3)?
Answer: > 100 µM (inactive)

Question: And the GI50 (RPMI-8226)?
Answer: > 100 µM (inactive)

Question: And the GI50 (SF-268)?
Answer: > 100 µM (inactive)

Question: What about the GI50 (SF-295) of the same compound?
Answer: > 100 µM (inactive)

Question: What about the GI50 (SF-539) of the same compound?
Answer: > 100 µM (inactive)

Question: And the GI50 (SK-MEL-28)?
Answer: > 100 µM (inactive)

Question: And the GI50 (SK-MEL-2)?
Answer: 64.4 µM (inactive)

Question: What about the GI50 (SK-MEL-5) of the same compound?
Answer: > 100 µM (inactive)

Question: And the GI50 (SK-OV-3)?
Answer: > 100 µM (inactive)

Question: What about the GI50 (SN12C) of the same compound?
Answer: > 100 µM (inactive)

Question: What about the GI50 (SNB-19) of the same compound?
Answer: > 100 µM (inactive)

Question: And the GI50 (SNB-75)?
Answer: > 100 µM (inactive)

Question: What about the GI50 (SR) of the same compound?
Answer: 6.28 µM (inactive)

Question: What about the GI50 (SW-620) of the same compound?
Answer: > 100 µM (inactive)

Question: What about the GI50 (T47D) of the same compound?
Answer: 50.7 µM (inactive)

Question: And the GI50 (TK-10)?
Answer: > 100 µM (inactive)

Question: And the GI50 (U-251)?
Answer: > 100 µM (inactive)

Question: What about the GI50 (UACC-257) of the same compound?
Answer: > 100 µM (inactive)

Question: And the GI50 (UACC-62)?
Answer: > 100 µM (inactive)

Question: And the GI50 (UO-31)?
Answer: > 100 µM (inactive)

Question: Which GI50 (786-0) does the source give for `Clc1ccc2c(NCCNc3ccnc4cc(Cl)ccc34)ccnc2c1` here?
Answer: 14.3 µM (inactive)

Question: And the GI50 (A498)?
Answer: 16.9 µM (inactive)

Question: And the GI50 (A549)?
Answer: 18.5 µM (inactive)

Question: And the GI50 (ACHN)?
Answer: 17.8 µM (inactive)

Question: What about the GI50 (BT-549) of the same compound?
Answer: 19.2 µM (inactive)

Question: What about the GI50 (CAKI-1) of the same compound?
Answer: 20.2 µM (inactive)

Question: What about the GI50 (CCRF-CEM) of the same compound?
Answer: 14.6 µM (inactive)

Question: What about the GI50 (COLO 205) of the same compound?
Answer: 14.6 µM (inactive)

Question: What about the GI50 (DU-145) of the same compound?
Answer: 22.8 µM (inactive)

Question: And the GI50 (EKVX)?
Answer: 19.2 µM (inactive)

Question: What about the GI50 (HCC 2998) of the same compound?
Answer: 15.2 µM (inactive)

Question: What about the GI50 (HCT-116) of the same compound?
Answer: 16.9 µM (inactive)

Question: And the GI50 (HCT-15)?
Answer: 15.6 µM

Question: And the GI50 (HL-60)?
Answer: 14.6 µM (inactive)

Question: What about the GI50 (HOP-62) of the same compound?
Answer: 16.2 µM (inactive)

Question: What about the GI50 (HOP-92) of the same compound?
Answer: 15.2 µM (inactive)

Question: What about the GI50 (HT-29) of the same compound?
Answer: 15.3 µM (inactive)

Question: What about the GI50 (Hs-578T) of the same compound?
Answer: 31.9 µM (inactive)

Question: And the GI50 (IGROV-1)?
Answer: 18.2 µM (inactive)

Question: What about the GI50 (K562) of the same compound?
Answer: 12.3 µM (inactive)

Question: And the GI50 (KM12)?
Answer: 18.2 µM (inactive)

Question: What about the GI50 (LOX IMVI) of the same compound?
Answer: 17.7 µM (inactive)

Question: And the GI50 (M14)?
Answer: 16.9 µM (inactive)

Question: And the GI50 (MCF7)?
Answer: 19.7 µM (inactive)

Question: What about the GI50 (MDA-MB-231) of the same compound?
Answer: 17 µM (inactive)

Question: What about the GI50 (MDA-MB-435) of the same compound?
Answer: 17.8 µM (inactive)

Question: What about the GI50 (MDA-N) of the same compound?
Answer: 17.1 µM (inactive)

Question: What about the GI50 (MOLT-4) of the same compound?
Answer: 17.4 µM (inactive)

Question: And the GI50 (Malme-3M)?
Answer: > 100 µM (inactive)

Question: And the GI50 (NCI-H226)?
Answer: 37.9 µM (inactive)

Question: And the GI50 (NCI-H23)?
Answer: 17.1 µM (inactive)

Question: What about the GI50 (NCI-H460) of the same compound?
Answer: 14 µM (inactive)

Question: What about the GI50 (NCI-H522) of the same compound?
Answer: 18.3 µM (inactive)

Question: And the GI50 (NCI/ADR-RES)?
Answer: 30.8 µM (inactive)

Question: And the GI50 (OVCAR-3)?
Answer: 15.1 µM (inactive)

Question: What about the GI50 (OVCAR-4) of the same compound?
Answer: 20 µM (inactive)

Question: And the GI50 (OVCAR-5)?
Answer: 16.5 µM (inactive)

Question: And the GI50 (OVCAR-8)?
Answer: 19.7 µM (inactive)

Question: What about the GI50 (PC-3) of the same compound?
Answer: 17 µM (inactive)

Question: And the GI50 (RPMI-8226)?
Answer: 20.6 µM (inactive)

Question: And the GI50 (RXF 393)?
Answer: 20 µM (inactive)

Question: And the GI50 (SF-268)?
Answer: 25.9 µM (inactive)

Question: What about the GI50 (SF-295) of the same compound?
Answer: 13.3 µM (inactive)

Question: What about the GI50 (SF-539) of the same compound?
Answer: 12 µM (inactive)

Question: And the GI50 (SK-MEL-28)?
Answer: 17.3 µM (inactive)

Question: What about the GI50 (SK-MEL-2) of the same compound?
Answer: 18.9 µM (inactive)

Question: What about the GI50 (SK-MEL-5) of the same compound?
Answer: 22.4 µM (inactive)

Question: And the GI50 (SK-OV-3)?
Answer: 17.7 µM (inactive)

Question: And the GI50 (SN12C)?
Answer: 17.8 µM (inactive)

Question: What about the GI50 (SNB-19) of the same compound?
Answer: 20.1 µM (inactive)

Question: What about the GI50 (SNB-75) of the same compound?
Answer: 21.5 µM (inactive)

Question: What about the GI50 (SW-620) of the same compound?
Answer: 13.6 µM (inactive)

Question: And the GI50 (T47D)?
Answer: 23.6 µM (inactive)

Question: And the GI50 (TK-10)?
Answer: 17.9 µM (inactive)

Question: And the GI50 (U-251)?
Answer: 17.9 µM (inactive)

Question: What about the GI50 (UACC-257) of the same compound?
Answer: 17.9 µM (inactive)

Question: And the GI50 (UACC-62)?
Answer: 18.1 µM (inactive)

Question: And the GI50 (UO-31)?
Answer: 15.7 µM (inactive)

— ChEMBL document CHEMBL1201862, “PubChem BioAssay data set” (2004)
